According to US20220411372A1, “SMALL-MOLECULE INHIBITORS FOR THE B-CATENIN/B-CELL LYMPHOMA 9 PROTEIN-PROTEIN INTERACTION” (H. Lee Moffitt Cancer Center and Research Institute, Inc., priority 2019, published 2022):
Like-named read-outs stand apart in the source and are kept apart here.

Target: T1, β-catenin/BCL9 PPI (Homo sapiens, UniProt P35222)
T1 construct: Full-length β-catenin (residues 1-781) were cloned into a pET-28b vector; made in house; host or cells: E. coli BL21 DE3 (β-catenin); BCL9 peptide synthesized by InnoPep Inc
T1 sequence (P35222 1-781): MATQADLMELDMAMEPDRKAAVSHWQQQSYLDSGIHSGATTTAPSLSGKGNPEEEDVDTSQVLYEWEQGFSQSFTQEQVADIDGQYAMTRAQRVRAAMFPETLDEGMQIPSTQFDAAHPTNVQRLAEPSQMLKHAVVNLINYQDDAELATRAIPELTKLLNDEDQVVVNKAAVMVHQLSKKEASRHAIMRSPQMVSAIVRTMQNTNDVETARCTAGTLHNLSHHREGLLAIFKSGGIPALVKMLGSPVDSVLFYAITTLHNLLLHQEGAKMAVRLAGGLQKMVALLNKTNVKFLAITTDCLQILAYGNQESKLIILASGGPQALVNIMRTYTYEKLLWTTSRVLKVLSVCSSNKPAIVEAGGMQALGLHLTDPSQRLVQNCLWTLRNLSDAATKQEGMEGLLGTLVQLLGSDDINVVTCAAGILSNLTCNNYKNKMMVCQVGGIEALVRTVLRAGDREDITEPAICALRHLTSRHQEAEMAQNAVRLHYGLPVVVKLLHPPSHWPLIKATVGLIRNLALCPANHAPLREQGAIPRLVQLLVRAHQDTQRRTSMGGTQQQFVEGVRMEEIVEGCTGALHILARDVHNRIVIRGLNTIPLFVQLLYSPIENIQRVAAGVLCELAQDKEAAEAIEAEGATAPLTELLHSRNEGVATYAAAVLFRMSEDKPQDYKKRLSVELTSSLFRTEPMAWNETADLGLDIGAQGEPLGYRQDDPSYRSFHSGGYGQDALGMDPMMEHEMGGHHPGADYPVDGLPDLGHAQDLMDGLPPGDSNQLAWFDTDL
Test: AlphaScreen competitive inhibition assay of the β-catenin/BCL9 PPI
Type: binding
Outline: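 5 nM biotinylated BCL9 and 40 nM His6-β-catenin preincubated 30 min at 4° C in pH 7.4 Hepes buffer with 0.01% Triton X-100, 0.1% BSA, 1% DMSO; inhibitor added 1 h at 4° C, then 10 μg/mL donor/acceptor beads 1 h.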

[1] = Table 3, inhibitors 27-43, read-out: Ki
[2] = Table 9, inhibitors 93-98, racemic, read-out: Ki
[3] = Table 1, inhibitors 1-14, read-out: Ki
[4] = Table 8, inhibitors 82-92, read-out: Ki

In the case of CC(C)(Oc1cccc(N2CCC[C@@H](C(=O)N(Cc3ccc(-c4ccccc4)cc3)C3CC3)C2)c1)C(=O)N1CCNCC1 [Compound 31, (R)-4-(2-(3-(3-(([1,1′-biphenyl]-4-ylmethyl)(cyclopropyl)carbamoyl)piperidin-1-yl)phenoxy)-2-methylpropanoyl)piperazin-1-ium chloride], the Ki [1] is reported as under 5 µM.

CC(C)c1ccc(CN(C)C(=O)C2CCCN(c3cccc(OC(C)(C)C(=O)O)c3)C2)cc1 (racemic) [Compound 95, 2-(3-(3-((4-isopropylbenzyl)(methyl)carbamoyl)piperidin-1-yl)phenoxy)-2-methylpropanoic acid] showed a Ki [2] of at most 90 µM.

Work on CC(C)c1ccc(CN(C(=O)[C@H]2CCCN(c3cccc(OC(C)(C)C(=O)O)c3)C2)C(C)C)cc1 [Compound 10, (S)-2-(3-(3-(isopropyl(4-isopropylbenzyl)carbamoyl)piperidin-1-yl)phenoxy)-2-methylpropanoic acid] yielded a Ki [3] of at most 50 µM.

With CC(C)c1ccc2c(c1)CCN(C(=O)[C@@H]1CCCN(c3cccc(OC(C)(C)C(=O)N4CCNCC4)c3)C1)C2 [Compound 90, (R)-4-(2-(3-(3-(6-isopropyl-1,2,3,4-tetrahydroisoquinoline-2-carbonyl)piperidin-1-yl)phenoxy)-2-methylpropanoyl)piperazin-1-ium chlorine] the Ki [4] was under 30 µM.

Compound CC(C)(Oc1cccc(N2CCCC(C(=O)N(Cc3ccc(-c4cccs4)cc3)C3CC3)C2)c1)C(=O)O (racemic) [Compound 103, 2-(3-(3-(cyclopropyl(4-(thiophen-2-yl)benzyl)carbamoyl)piperidin-1-yl)phenoxy)-2-methylpropanoic acid] has a Ki (Table 10, inhibitors 99-106, racemic, read-out: Ki ± SD) of at most 30 µM.

Work on CCN(Cc1ccc(C(C)C)cc1)C(=O)[C@@H]1CCCN(c2cccc(OC(C)(C)C(=O)N3CCNCC3)c2)C1 [Compound 21, (R)-4-(2-(3-(3-(ethyl(4-isopropylbenzyl)carbamoyl)piperidin-1-yl)phenoxy)-2-methylpropanoyl)piperazin-1-ium chloride] yielded a Ki (Table 2, inhibitors 15-26, read-out: Ki) of at most 30 µM.

Cc1noc(C)c1-c1ccc(CN(C(=O)[C@@H]2CCCN(c3cccc(OC(C)(C)C(=O)N4CCNCC4)c3)C2)C2CC2)cc1 [Compound 41, (R)-4-(2-(3-(3-(cyclopropyl(4-(3,5-dimethylisoxazol-4-yl)benzyl)carbamoyl)piperidin-1-yl)phenoxy)-2-methylpropanoyl)piperazin-1-ium chloride] gave a Ki [1] of under 30 µM.

Work on O=C(c1cccc(N2CCC[C@@H](C(=O)N(Cc3ccc(-c4cn[nH]c4)cc3)C3CC3)C2)c1)N1CCNCC1 [Compound 85, (R)-4-(3-(3-((4-(1H-pyrazol-4-yl)benzyl)(cyclopropyl)carbamoyl)piperidin-1-yl)benzoyl)piperazin-1-ium chloride] yielded a Ki [4] of under 90 µM.

Work on CC(C)c1ccc(CN(C(=O)C2CCCN(c3cccc(OC(C)(C)C(=O)O)c3)C2)C(C)C)cc1 (racemic) [Compound 97, 2-(3-(3-(isopropyl(4-isopropylbenzyl)carbamoyl)piperidin-1-yl)phenoxy)-2-methylpropanoic acid] yielded a Ki [2] of at most 90 µM.

In the case of CCN(Cc1ccc(C(C)C)cc1)C(=O)[C@@H]1CCCN(c2cccc(OC(C)(C)C(=O)O)c2)C1 [Compound 7, (R)-2-(3-(3-(ethyl(4-isopropylbenzyl)carbamoyl)piperidin-1-yl)phenoxy)-2-methylpropanoic acid], the Ki [3] is reported as over 90 µM.

CC(C)c1ccc(CCNC(=O)[C@H]2CCCN(c3cccc(OC(C)(C)C(=O)O)c3)C2)cc1 [Compound 14, (S)-2-(3-(3-((4-isopropylphenethyl)carbamoyl)piperidin-1-yl)phenoxy)-2-methylpropanoic acid] gave a Ki [3] of at most 90 µM.

For CCOc1cc(-c2cn[nH]c2)ccc1CN(C(=O)[C@@H]1CCCN(c2cccc(OC(C)(C)C(=O)N3CCNCC3)c2)C1)C1CC1 [Compound 109, (R)-4-(2-(3-(3-(Cyclopropyl(2-ethoxy-4-(1H-pyrazol-4-yl)benzyl)carbamoyl)piperidin-1-yl)phenoxy)-2-methylpropanoyl)piperazin-1-ium chloride], the Ki (Table 12, inhibitors 109-112, read-out: Ki) was at most 30 µM.
